Assay results published in patent publication US20080097385A1, “Therapeutic Adjuncts to Enhance the Organ Protective Effects of Postconditioning” (priority 2004, published 2008).
Read-outs that look alike come from different tables or passages of the source.

How the values were obtained:
[1] = test system: anesthetized open-chest rats (LCA occlusion/reperfusion); experiment: Anesthetized open-chest rats: LCA occlusion 30 min, reperfusion 3 h; infarct size (TTC) with adenosine receptor antagonists with or without postconditioning; assay type: in vivo; details: rat
Description: (§1) Adenosine is a mediator of the cardioprotection of postconditioning. Isolated-perfused mouse hearts were subjected to 20 min global ischemia (I) and 30 min reperfusion (R) with or without Postcon (6 cycles of 10 sec. R & occlusion). Intravascular purines in coronary effluent were analyzed by HPLC. To determine whether endogenous adenosine played a physiological role in postconditioning, the left coronary artery (LCA) was occluded for 30 min and reperfused for 3 hours in anesthetized open-chest rats. The rats were randomly divided into six groups (n=8 each): Control (no intervention); postconditioning (3 cycles of 10-s R followed by 10-s LCA I before 3 hours R); 8-SPT (subtype non-selective adenosine receptor antagonist, 10 mg/kg), or ZW241385 (A2a receptor antagonist, 0.2 mg/kg), was given 5 min before R with or without postconditioning. In mouse hearts, postconditioning decreased effluent [adenosine] at 2 min R (58±5* vs 155±16 nM/min/g), and improved contractile function (LV developed pressure 32±7* vs 16±2 mmHg) and end-diastolic pressure (27±3* vs 36±3 mmHg) at 5 min R which persisted at 30 min R. In in vivo rats, postconditioning reduced infarct size (TTC) vs the control group (40±3.1%* vs 52±2.2%). 8-SPT (51±2.5%) or ZM241385 alone (50±2.1%) without postconditioning had no effect on infarct size. The infarct-sparing effect of postconditioning was abrogated by 8-SPT and ZM241385 (50±1.8% and 49±2.6%). Neutrophil (PMN) accumulation (myeloperoxidase activity) in the area at risk was less in postconditioning vs Control (1.0±0.2* vs 2.2±0.4 U/100 g protein); adenosine receptor antagonists blocked the reduction of PMN accumulation in postconditioning (postconditioning+8-SPT 2.1±0.2; postconditioning+ZM241385 1.6+0.2).

[2] = test system: anesthetized open-chest rats (LCA occlusion/reperfusion); experiment: Neutrophil (PMN) accumulation (myeloperoxidase activity) in the area at risk, rat LCA occlusion/reperfusion; assay type: in vivo; details: postconditioning + antagonist, postconditioning 1.0±0.2, Control 2.2±0.4
Description: as §1, with “The infarct-sparing effect of postconditioning was abrogated by 8-SPT and ZM241385 (50±1.8% and 49±2.6%). Neutrophil (PMN) accumulation (myeloperoxidase activity) in the area at risk was less in postconditioning vs Control (1.0±0.2* vs 2.2±0.4 U/100 g protein); adenosine receptor antagonists blocked the reduction of PMN accumulation in postconditioning (postconditioning+8-SPT 2.1±0.2; postconditioning+ZM241385 1.6+0.2).” left out

[3] = test system: rat model of myocardial infarction; experiment: Rat model of myocardial infarction: LCA occlusion 30 min, reperfusion 3 h; infarct size with cariporide with or without postconditioning; assay type: in vivo
Description: Cross-hatched bar=time when the sodium-hydrogen exchange inhibitor (NHE-1), cariporide is administered intravenously. Vertical hatched bar=postconditioning algorithm. Control (n=8); occlusion of the left coronary artery (LCA) for 30 min (dark bar), was followed by 3 h of reperfusion (open bar). Post-con (n=8); 10 of full reperfusion (R, open bar) and 10 s of re-occlusion ischemia (I, dark bar) were repeated for three cycles. NHE(1) (n=8); cariporide (1 mg/kg) was injected 5 min prior to reperfusion, followed by unbridled R. NHE(1)+Post-con (n=8); cariporide followed by Post-con. Delay (D)-NHE(1) (n=8); cariporide was injected for 5 min after 1 min of full unbridled reperfusion. Post-con+D-NHE(1) (n=8); Post-con followed by injecting cariporide for 5 min. […] Infarct size is expressed as a percentage of AN and AAR. In all groups, infarct size decreased compared to that of Control. […] Post-con=postconditioning. Values are means ±SEM. Postconditioning can be enhanced by pharmacological means which capture the protective actions of the proximal mediators such as adenosine and opioids. In a rat model of myocardial infarction, it can be shown that the dual approach of attenuating reperfusion injury by applying postconditioning in the presence of a sodium-hydrogen exchange (NHE-1) inhibitor during early reperfusion achieves greater infarct size reduction than either intervention alone. Specifically, in an anesthetized rat model, the left coronary artery (LCA) was occluded for 30 min of ischemia (I) and reperfused for 3 hours. Rats were randomly divided into six groups (n=8 each) (FIG. 10): Control: no intervention at reperfusion; Postconditioning: three cycles of 10-s reperfusion followed by 10-s re-occlusion were applied during the first minute of reperfusion; NHE(1): cariporide (1 mg/kg) was infused 5 min before reperfusion, with or without postconditioning; Delayed (D)-NHE(1): a 5-minute infusion of cariporide was begun 1 min after onset of reperfusion equivalent to postconditioning period; Post-con+D-NHE(1): Completion of postconditioning was followed immediately by cariporide infusion for 5 min. […] When NHE(1) preceded postconditioning as a reperfusion intervention, infarct size was not further reduced (45±2%*) compared to either intervention alone. However, an additive reduction in infarct size was achieved when postconditioning preceded NHE(1) inhibitor at reperfusion (Post-con+D-N-HE(1), 34±2%). Thus, infarct size reduction by postconditioning is enhanced by NHE inhibition at reperfusion when postconditioning precedes cariporide administration.

[4] = test system: rabbit model of myocardial infarction; details: cited from earlier work
[5] = antagonist alone, given 5 min before reperfusion, without postconditioning, control 52±2.2%
[6] = antagonist given 5 min before reperfusion, with postconditioning, postconditioning alone 40±3.1%

## Cn1c(=O)c2[nH]c(-c3ccc(S(=O)(=O)O)cc3)nc2n(C)c1=O [8-SPT]
[1]; [5]
  infarct size (TTC): 51±2.5%
[1]; [6]
  infarct size (TTC): 50±1.8%
[2]
  neutrophil (PMN) accumulation (myeloperoxidase activity) in the area at risk: 2.1±0.2 U/100 g protein

## Nc1nc(NCCc2ccc(O)cc2)nc2nc(-c3ccco3)nn12 [ZM241385]
[1]; [5]
  infarct size (TTC): 50±2.1%
[1]; [6]
  infarct size (TTC): 49±2.6%
[2]
  neutrophil (PMN) accumulation (myeloperoxidase activity) in the area at risk: 1.6+0.2 U/100 g protein

## CC(C)c1ccc(C(=O)NC(=N)N)cc1S(C)(=O)=O [cariporide]
[3]; NHE(1) alone: cariporide 1 mg/kg infused 5 min before reperfusion, no postconditioning
  infarct size (AN as percentage of AAR): 43±2%
[3]; NHE(1)+Post-con: cariporide 1 mg/kg 5 min before reperfusion, followed by postconditioning
  infarct size (AN as percentage of AAR): 45±2%
[3]; Post-con+D-NHE(1) group, FIG. 11
  decrease in infarct size compared with postconditioning alone: significantly greater than postconditioning alone
[3]; Post-con+D-NHE(1): postconditioning followed immediately by 5 min cariporide infusion
  infarct size (AN as percentage of AAR): 34±2%

## FC(F)OC(Cl)C(F)(F)F (stereo not shown) [isoflurane]
[4]; 0.5 minimum alveolar concentration isoflurane alone, control 41±2%
  infarct size: 43±3 % of the left ventricular area at risk
[4]; 1.0 minimum alveolar concentration isoflurane alone, control 41±2%
  infarct size: 21±2 % of the left ventricular area at risk
[4]; combined postconditioning (10 s) and 0.5 minimum alveolar concentration isoflurane
  infarct size: 17±5 % of the left ventricular area at risk
